From patent US20080039629A1, “Benzothniazole compositions and their use as ubiquition ligation inhibitors” (RIGEL PHARMACEUTICALS, INC., priority 2003, published 2008)

What follows are compounds tested against T1, E1 and His-E2 Ubch10 (Homo sapiens, UniProt P22314) (assay: E1 to E2 transfer assay, His-E2 Ubch10, 1.0 μM ATP (low ATP)). Conditions: Table 5, ATP inhibition properties; inhibition measured using IC50 values.
T1 construct: host or cells: E. coli (His-Ubch10); Sf9 insect cells (E1)
T1 sequence (P22314 1-1058): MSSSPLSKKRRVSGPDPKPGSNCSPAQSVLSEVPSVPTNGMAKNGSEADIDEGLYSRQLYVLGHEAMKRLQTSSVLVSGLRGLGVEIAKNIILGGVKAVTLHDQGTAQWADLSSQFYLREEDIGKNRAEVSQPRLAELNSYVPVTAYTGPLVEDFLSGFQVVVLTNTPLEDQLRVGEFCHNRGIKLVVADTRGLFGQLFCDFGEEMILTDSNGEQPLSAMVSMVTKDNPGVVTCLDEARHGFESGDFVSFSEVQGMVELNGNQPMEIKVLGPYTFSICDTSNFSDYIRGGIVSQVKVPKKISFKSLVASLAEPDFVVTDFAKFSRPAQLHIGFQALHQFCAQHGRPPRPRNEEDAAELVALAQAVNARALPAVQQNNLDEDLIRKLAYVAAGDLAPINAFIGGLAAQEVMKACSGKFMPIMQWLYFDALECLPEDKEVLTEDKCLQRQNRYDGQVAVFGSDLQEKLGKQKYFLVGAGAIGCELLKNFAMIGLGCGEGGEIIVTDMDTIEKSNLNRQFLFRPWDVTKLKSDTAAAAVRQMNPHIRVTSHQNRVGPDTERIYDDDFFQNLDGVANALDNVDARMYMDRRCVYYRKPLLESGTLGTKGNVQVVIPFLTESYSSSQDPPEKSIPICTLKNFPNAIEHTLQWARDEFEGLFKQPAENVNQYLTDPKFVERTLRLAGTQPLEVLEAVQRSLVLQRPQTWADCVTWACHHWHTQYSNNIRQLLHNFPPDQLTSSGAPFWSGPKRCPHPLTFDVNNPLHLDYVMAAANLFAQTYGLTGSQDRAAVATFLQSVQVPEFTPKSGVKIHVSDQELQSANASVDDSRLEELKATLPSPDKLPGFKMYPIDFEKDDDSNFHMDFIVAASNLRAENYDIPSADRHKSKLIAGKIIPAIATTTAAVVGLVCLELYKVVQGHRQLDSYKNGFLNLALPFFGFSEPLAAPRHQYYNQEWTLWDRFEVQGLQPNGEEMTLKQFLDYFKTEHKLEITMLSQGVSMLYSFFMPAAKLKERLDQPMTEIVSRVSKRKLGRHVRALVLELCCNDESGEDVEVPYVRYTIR
Type: biochemical
Procedure, shortened: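 His-Ubch10 (20 ng/well), E1 (10 ng/well) and Flag-ubiquitin (100 ng) reacted 1 h at room temperature on nickel plates in 62.5 mM Tris pH 7.5, 0.75 mM DTT, 1.0 μM ATP with inhibitor. E2-ubiquitin complex detected by anti-Flag/HRP luminescence; IC50 determined.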

**Q.** Which UBC10 does the source give for CN(C)c1ccccc1C(=O)Nc1nc2ccccc2s1 [Compound 223, N-(benzo[d]thiazol-2-yl)-2-(dimethylamino)benzamide] here?
**A.** The UBC10 was “−− (−− indicates marginal or no inhibition detected with this assay)”.

**Q.** How did the UBC10 turn out when COc1ccc2nc(NC(=O)c3ccc(C#N)cc3)sc2c1 [Compound 31, 4-cyano-N-(6-methoxybenzo[d]thiazol-2-yl)benzamide] was run?
**A.** The UBC10 was “++ (++ indicates inhibition at 50 μM or or less)”.

**Q.** CC(=O)Nc1ccc2nc(NC(=O)c3ccc(C)cc3)sc2c1 [Compound 72, N-(6-acetamidobenzo[d]thiazol-2-yl)-4-methylbenzamide] was tested. Which UBC10 did it give?
**A.** The UBC10 was “−− (−− indicates marginal or no inhibition detected with this assay)”.

**Q.** How did the UBC10 turn out when COc1ccc2nc(NC(=O)c3ccc(NC(=O)C4CCCCC4)cc3)sc2c1 [Compound 19, 4-(cyclohexanecarboxamido)-N-(6-methoxybenzo[d]thiazol-2-yl)benzamide] was run?
**A.** Its UBC10 is “++ (++ indicates inhibition at 50 μM or or less)”.

**Q.** With Cc1ccc2nc(NC(=O)c3ccc(C)c(C)c3)sc2c1 [Compound 80, 3,4-dimethyl-N-(6-methylbenzo[d]thiazol-2-yl)benzamide] as the compound, how does the UBC10 read?
**A.** The UBC10 was “−− (−− indicates marginal or no inhibition detected with this assay)”.

**Q.** For COc1ccc(C(=O)Nc2nc3ccc(OC)cc3s2)cc1 [Compound 36, 4-methoxy-N-(6-methoxybenzo[d]thiazol-2-yl)benzamide], which UBC10 is on record?
**A.** Its UBC10 is “++ (++ indicates inhibition at 50 μM or or less)”.

**Q.** For O=C(Nc1nc2ccccc2s1)c1ccccc1F [Compound 164, N-(benzo[d]thiazol-2-yl)-2-fluorobenzamide], which UBC10 is on record?
**A.** The UBC10 was “−− (−− indicates marginal or no inhibition detected with this assay)”.

**Q.** For CCOc1ccc2nc(NC(=O)c3ccc(NC(C)=O)cc3)sc2c1 [Compound 94, 4-acetamido-N-(6-ethoxybenzo[d]thiazol-2-yl)benzamide], which UBC10 is on record?
**A.** The UBC10 was “−− (−− indicates marginal or no inhibition detected with this assay)”.

**Q.** Which UBC10 does the source give for COc1ccc2nc(NC(=O)c3sccc3Cl)sc2c1 [Compound 104, 3-chloro-N-(6-methoxybenzo[d]thiazol-2-yl)thiophene-2-carboxamide] here?
**A.** The UBC10 was “−− (−− indicates marginal or no inhibition detected with this assay)”.

**Q.** With COc1ccc2nc(NC(=O)c3ccccc3OC)sc2c1 [Compound 61, 2-methoxy-N-(6-methoxybenzo[d]thiazol-2-yl)benzamide] as the compound, how does the UBC10 read?
**A.** The UBC10 was “−− (−− indicates marginal or no inhibition detected with this assay)”.

**Q.** With O=C(Nc1nc2ccccc2s1)c1cccc(Cl)c1 [Compound 186, N-(benzo[d]thiazol-2-yl)-3-chlorobenzamide] as the compound, how does the UBC10 read?
**A.** Its UBC10 is “−− (−− indicates marginal or no inhibition detected with this assay)”.

**Q.** With COc1ccc2nc(NC(=O)c3cccc([N+](=O)[O-])c3)sc2c1 [Compound 54, N-(6-methoxybenzo[d]thiazol-2-yl)-3-nitrobenzamide] as the compound, how does the UBC10 read?
**A.** Its UBC10 is “−− (−− indicates marginal or no inhibition detected with this assay)”.

**Q.** Which UBC10 does the source give for CCOc1ccc2nc(NC(=O)c3ccc(Cl)c(Cl)c3)sc2c1 [Compound 96, 3,4-dichloro-N-(6-ethoxybenzo[d]thiazol-2-yl)benzamide] here?
**A.** Its UBC10 is “++ (++ indicates inhibition at 50 μM or or less)”.

**Q.** For COc1ccc2nc(NC(=O)Cc3ccccc3)sc2c1 [Compound 43, N-(6-methoxybenzo[d]thiazol-2-yl)-2-phenylacetamide], which UBC10 is on record?
**A.** Its UBC10 is “−− (−− indicates marginal or no inhibition detected with this assay)”.

**Q.** COc1ccc2nc(NC(=O)C3CCCN3S(=O)(=O)c3ccc(C)cc3)sc2c1 (stereo not drawn) [Compound 37, N-(6-methoxybenzo[d]thiazol-2-yl)-1-tosylpyrrolidine-2-carboxamide] was tested. Which UBC10 did it give?
**A.** The UBC10 was “−− (−− indicates marginal or no inhibition detected with this assay)”.

**Q.** With COc1ccc(OC)c(NC(=O)Nc2nc3ccc(OC)cc3s2)c1 [Compound 120, 1-(2,5-dimethoxyphenyl)-3-(6-methoxybenzo[d]thiazol-2-yl)urea] as the compound, how does the UBC10 read?
**A.** The UBC10 was “++ (++ indicates inhibition at 50 μM or or less)”.

**Q.** How did the UBC10 turn out when COc1ccc2nc(NC(=O)c3ccc(F)cc3)sc2n1 [Compound 154, 4-fluoro-N-(5-methoxythiazolo[5,4-b]pyridin-2-yl)benzamide] was run?
**A.** The UBC10 was “++ (++ indicates inhibition at 50 μM or or less)”.

**Q.** With O=C(Nc1nc2ccccc2s1)C1CCNCC1 [Compound 225, N-(benzo[d]thiazol-2-yl)piperidine-4-carboxamide] as the compound, how does the UBC10 read?
**A.** The UBC10 was “−− (−− indicates marginal or no inhibition detected with this assay)”.

**Q.** With O=C(Nc1nc2ccccc2s1)c1ccc(Br)o1 [Compound 208, N-(benzo[b]thiazol-2-yl)-5-bromofuran-2-carboxamide] as the compound, how does the UBC10 read?
**A.** The UBC10 was “−− (−− indicates marginal or no inhibition detected with this assay)”.

**Q.** Which UBC10 does the source give for COC(=O)c1ccc(C(=O)Nc2nc3ccc(OC)cc3s2)cc1 [Compound 26, methyl 4-((6-methoxybenzo[d]thiazol-2-yl)carbamoyl)benzoate] here?
**A.** The UBC10 was “++ (++ indicates inhibition at 50 μM or or less)”.

**Q.** COc1ccc2nc(NC(=O)c3cccc(C)c3)sc2c1 [Compound 56, N-(6-methoxybenzo[d]thiazol-2-yl)-3-methylbenzamide] was tested. Which UBC10 did it give?
**A.** The UBC10 was “++ (++ indicates inhibition at 50 μM or or less)”.

**Q.** How did the UBC10 turn out when COc1ccc2nc(N3C(=O)c4ccccc4C3=O)sc2c1 [Compound 51, 2-(6-methoxybenzo[d]thiazol-2-yl)isoindoline-1,3-dione] was run?
**A.** Its UBC10 is “++ (++ indicates inhibition at 50 μM or or less)”.

**Q.** Which UBC10 does the source give for Cc1ccc(C(=O)Nc2nc3ccc([N+](=O)[O-])cc3s2)cc1C [Compound 79, 3,4-dimethyl-N-(6-nitrobenzo[d]thiazol-2-yl)benzamide] here?
**A.** Its UBC10 is “++ (++ indicates inhibition at 50 μM or or less)”.

**Q.** For COc1ccc2nc(NC(=O)C34CC5CC(CC(C5)C3)C4)sc2c1 [Compound 42, N-(6-methoxy-1,3-benzothiazol-2-yl)adamantane-1-carboxamide], which UBC10 is on record?
**A.** Its UBC10 is “++ (++ indicates inhibition at 50 μM or or less)”.

**Q.** For CCCC1CCC(C(=O)Nc2nc3ccc(OC)cc3s2)CC1 (stereo not drawn) [Compound 45, N-(6-methoxybenzo[d]thiazol-2-yl)-4-propylcyclohexanecarboxamide], which UBC10 is on record?
**A.** The UBC10 was “++ (++ indicates inhibition at 50 μM or or less)”.

**Q.** For CCc1ccc(C(=O)Nc2nc3ccc(OC)cc3s2)cc1 [Compound 77, 4-ethyl-N-(6-methyoxybenzo[d]thiazol-2-yl)benzamide], which UBC10 is on record?
**A.** Its UBC10 is “++ (++ indicates inhibition at 50 μM or or less)”.

**Q.** For O=C(Nc1nc2ccccc2s1)c1ccccc1Br [Compound 159, N-(benzo[d]thiazol-2-yl)-2-bromobenzamide], which UBC10 is on record?
**A.** Its UBC10 is “++ (++ indicates inhibition at 50 μM or or less)”.

**Q.** With COc1ccc2nc(NC(=O)C3CCNCC3)sc2c1 [Compound 44, N-(6-methoxybenzo[d]thiazol-2-yl)piperidine-4-carboxamide] as the compound, how does the UBC10 read?
**A.** The UBC10 was “−− (−− indicates marginal or no inhibition detected with this assay)”.

**Q.** For Cc1ccc(C(=O)Nc2nc3ccc(OC(F)(F)F)cc3s2)cc1 [Compound 75, 4-methyl-N-(6-(trifluoromethoxy)benzo[d]thiazol-2-yl)benzamide], which UBC10 is on record?
**A.** Its UBC10 is “−− (−− indicates marginal or no inhibition detected with this assay)”.

**Q.** With COc1ccc2nc(NC(=O)c3ccc([N+](=O)[O-])cc3)sc2c1 [Compound 24, N-(6-methoxybenzo[d]thiazol-2-yl)-4-nitrobenzamide] as the compound, how does the UBC10 read?
**A.** The UBC10 was “++ (++ indicates inhibition at 50 μM or or less)”.

**Q.** How did the UBC10 turn out when COc1ccc2nc(NC(=O)c3cccs3)sc2n1 [Compound 138, N-(5-methoxythiazolo[5,4-b]pyridin-2-yl)thiophene-2-carboxamide] was run?
**A.** The UBC10 was “++ (++ indicates inhibition at 50 μM or or less)”.

**Q.** With O=C(Nc1nc2ccccc2s1)c1ccc(Br)cc1 [Compound 172, N-(benzo[d]thiazol-2-yl)-4-bromobenzamide] as the compound, how does the UBC10 read?
**A.** Its UBC10 is “−− (−− indicates marginal or no inhibition detected with this assay)”.

**Q.** How did the UBC10 turn out when CCCCc1ccc(C(=O)Nc2nc3ccc(OC)cc3s2)cc1 [Compound 82, 4-butyl-N-(6-methoxybenzo[d]thiazol-2-yl)benzamide] was run?
**A.** Its UBC10 is “++ (++ indicates inhibition at 50 μM or or less)”.

**Q.** COc1ccc2nc(NC(=O)Nc3ccc(Cl)cc3)sc2c1 [Compound 99, 1-(4-chlorophenyl)-3-(6-methoxybenzo[d]thiazol-2-yl)urea] was tested. Which UBC10 did it give?
**A.** The UBC10 was “−− (−− indicates marginal or no inhibition detected with this assay)”.

**Q.** COc1ccc2nc(NC(=O)Nc3cccc(F)c3)sc2c1 [Compound 100, 1-(3-fluorophenyl)-3-(6-methoxybenzo[d]thiazol-2-yl)urea] was tested. Which UBC10 did it give?
**A.** Its UBC10 is “++ (++ indicates inhibition at 50 μM or or less)”.

**Q.** For O=C(Nc1nc2ccccc2s1)C1CCCCC1 [Compound 205, N-(benzo[d]thiazol-2-yl)cyclohexanecarboxamide], which UBC10 is on record?
**A.** Its UBC10 is “−− (−− indicates marginal or no inhibition detected with this assay)”.
